{"source": "patent EP2229935A1", "about": "“Peptide derivatives or pharmaceutically acceptable salts thereof, method for producing the same, use of said derivatives and pharmaceutical composition” (Nebolsin, Vladimir Evgenievich, priority 1997, dated 1999)", "key": {"[1]": {"system": "white mongrel male rats", "assay": "Carrageenan paw edema, oral administration (series I)", "assay_type": "in vivo", "protocol": "Experiment was carried out on white mongrel male rats weighing 280-300 g. Carrageenan-induced edema was caused according to the method of Winter et al. [[inter et al. In: De Rosa M., Giroud J.P., Willoughby D.A. Studies of the mediators of the acute inflammatory reponse induced in rats in different sites by carrageenan and turpentine. […] Paw volume measurement was done using a plethysmograph (Ugo Basile) 1, 3 and 4 hours after carrageenan administration. Inhibition of inflammatory reaction expressed in percent, was calculated according to the formula: 100-[(R-L(exper.))/(L):(R-L(control))/(L)x100](%) [formula] where R - the right paw volume, L - the left paw volume.\nSeries I of experiment. […] The reference drug Naproxene was once administered at a dose 20 µg/kg 1 hour before edema induction. Each group included 10 animals."}, "[2]": {"system": "Lewis pulmonary carcinoma (LLC)", "assay": "Lewis pulmonary carcinoma growth", "assay_type": "in vivo", "conditions": "mice with LLC, day 12", "description": "Experiments were carried out on male mice with initial body mass 18-20 g. Each group included 10 animals. […] Administration of compounds II, III, IX, X, XII, XIV, XV, XVI, XVII, XIX, XXII, XLVII in drinking water was commenced 24 hours following transplantation and continued till the end of experiment. Effect of the compounds on Lewis rat pulmonary carcinoma (LLC) was estimated by day 12 of experiment by change in tumor volume expressed in mm^3."}, "[3]": {"system": "mongrel white male mice", "assay": "Delayed type hypersensitivity induced by sheep red blood cells", "assay_type": "in vivo", "conditions": "DTH to sheep red blood cells; for Difference in paw masses: 24 hours; for Percent to the control / Reaction index, percent: oral", "protocol": "Studies were cartried out on mongrel white male mice with initial body mass 22-24 g. Each group included 10 animals. Mice were sensitized with intravenous injection of the suspension of 2 x 10^5 sheep red blood, cells in 0.05 ml normal saline. By day 5, the suspension of 10^8 sheep red blood cells in 0.05 ml normal saline was injected into the hind paw pad. As a control, the solvent, i.e. normal saline in equivalent amount, was injected. Reaction intensity was assessed in 24 hours by difference in the paw masses of animals. Reaction index = (Mt -Mc)/(Mc)x 100 [formula]\nThe test compound III was orally administered for three days at doses 50 and 500 µg/kg according to the dosage regimen - days 3, 4 and 5, day 5 - administration of the anaphylaxis-provoking dose."}, "[4]": {"system": "Isolate HIV-1/IV17 of type 1 human immunodeficiency virus", "assay": "Viability of MT-4 cells acutely infected with HIV-1", "assay_type": "cell-based", "conditions": "day 7", "protocol": "Study was carried out on the culture of human lymphoblastoid cells MT-4. Isolate HIV-1/IV17 of type 1 human immunodeficiency virus from the collection of the D.I.Ivanovsky Institute for Virology was used in experiment. The test compounds of general formula (I): III, VI, VII were introduced into cellular culture at concentrations 1.0; 0.1 and 0.01 µg/ml. The reference drug Azidothymidine was introduced at a dose 0.05 µM/ml. The compounds were introduced into the culture of MT-4 cells at a dose 1000 TCD50 one hour prior to virus introduction. Viability of MT-4 cells was estimated by day 7 of experiment.\nViability of cells was the main efficacy parameter of the test compounds."}, "[5]": {"system": "mongrel guinea-pigs", "assay": "Food anaphylaxis (active anaphylactic shock) in OVA-sensitized guinea pigs", "conditions": "oral 3 days before provoking anaphylaxis, 50 µg/kg"}, "[6]": {"conditions": "intragastral four times 50 µg/kg"}}, "note": "Marks after values point to notes of the source that are not given here.", "data": [{"compound": "O=C(O)CCCC(=O)NCCc1c[nH]cn1", "note": "[compound III, N-GLUTARYLHISTAMINE]", "values": [{"measurement": "Inflammation inhibition (%)", "setting": "[1]; [6]", "value": 30, "unit": "%"}, {"measurement": "Volume increment", "setting": "[1]; [6]", "value": "0.49 ± 0.07"}, {"measurement": "Volume of paws (conditional units) left", "setting": "[1]; [6]", "value": "1.23 ± 0.41", "unit": "conditional units"}, {"measurement": "Volume of paws (conditional units) Right", "setting": "[1]; intragastral four times 50 µg/kg 72, 48, 24 and 1 hour before", "value": "1.72 ± 0.27", "unit": "conditional units"}, {"measurement": "Growth inhibition percent", "setting": "[2]; compound in drinking water", "value": 53, "unit": "%"}, {"measurement": "Tumor volume (mm^3)", "setting": "[2]; compound in drinking water from 24 hours after transplantation", "value": "1249 ± 168** mm^3"}, {"measurement": "Difference in paw masses", "setting": "[3]; oral days 3, 4, 5, 50 µg/kg", "value": "16.7 ± 1.9", "unit": "g"}, {"measurement": "Difference in paw masses", "setting": "[3]; oral days 3, 4, 5, 500 µg/kg", "value": "17.2 ± 1.3", "unit": "g"}, {"measurement": "Percent to the control", "setting": "[3]; 50 µg/kg", "value": 75.5, "unit": "%"}, {"measurement": "Reaction index, percent", "setting": "[3]; 50 µg/kg", "value": "10.3 ± 1.1", "unit": "%"}, {"measurement": "Percent to the control", "setting": "[3]; 500 µg/kg", "value": 79.3, "unit": "%"}, {"measurement": "Reaction index, percent", "setting": "[3]; 500 µg/kg", "value": "10.8 ± 0.8", "unit": "%"}, {"measurement": "protective effect against cytodestructive HIV-1 effect (viability of MT-4 cells)", "setting": "[4]; 1.0 and 0.1 µg/ml", "value": "comparable with the effect of the reference drug Azidothymidine"}, {"measurement": "viability at 0.01 µg/mL", "setting": "[4]; Human immunodeficiency virus 1, MT4, 168 h, 0.01 µg/ml, series 1 (infected cells 10-17, non-infected 90), read-out: Viability of cells in percent", "value": 18, "unit": "%"}, {"measurement": "viability at 0.1 µg/mL", "setting": "[4]; Human immunodeficiency virus 1, MT4, 168 h, 0.1 µg/ml, series 1 (infected cells 10-17, non-infected 90), read-out: Viability of cells in percent", "value": 39, "unit": "%"}, {"measurement": "viability at 1 µg/mL", "setting": "[4]; Human immunodeficiency virus 1, MT4, 168 h, 1.0 µg/ml, series 1 (infected cells 10-17, non-infected 90), read-out: Viability of cells in percent", "value": 68, "unit": "%"}, {"measurement": "Lethality in percent", "setting": "[5]", "value": "6.7** percent"}]}]}
